The values that follow come from BindingDB's records for doi:10.1021/acs.jmedchem.9b00775 (University of North Carolina at Chapel Hill, 2020).

Experiment [1] in a line: Inhibition of RNA-dependent RNA polymerase in Zika virus PRVABC59/Human/2015/Puerto Rico infected in human NSC assessed as antiviral activity measured 72 hrs post infection by CellTiter-Glo assay. On the technique in general: In ATP-based viability assays light output follows the ATP content of the culture.
Experiment [2] is described as follows: Inhibition of RNA-dependent RNA polymerase in Zika virus H/PAN/2016/BEI-259634 infected in human NSC assessed as antiviral activity measured 72 hrs post infection by CellTiter-Glo assay.
Experiment [3] in a line: Inhibition of RNA-dependent RNA polymerase in Zika virus MR766 infected in African green monkey Vero E6 cells assessed as antiviral activity.
Experiment [4] can be described thus: Inhibition of MTase in Zika virus infected in African green monkey Vero cells assessed as antiviral activity incubated for 5 days by inverted microscopic method.
Experiment [5] is described as follows: Inhibition of RNA-dependent RNA polymerase in Zika virus PRVABC59 infected in African green monkey Vero cells assessed as antiviral activity measured 96 hrs post infection by plaque assay.
Experiment [6] in a line: Inhibition of RNA-dependent RNA polymerase in Zika virus PRVABC59 infected in African green monkey Vero cells infected with supernatants from virus-infected human SNB-19 cells treated with compound for 1 hr assessed as antiviral activity after 48 to 72 hrs.
Experiment [7] is described as follows: Inhibition of RNA-dependent RNA polymerase in Zika virus MR766 infected in HEK293 cells assessed as antiviral activity by measuring NS1 protein expression preincubated for 1 hr followed by viral infection and measured after 24 hrs by TR-FRET assay. For orientation: Time-resolved FRET reads energy transfer from a long-lived donor to a nearby acceptor.
The target of experiment [8] is T1, Genome polyprotein (Zika virus, UniProt A0A143MHK7). The experiment in a line: Inhibition of RNA-dependent RNA polymerase in Zika virus MR766 infected in African green monkey Vero cells assessed as antiviral activity by measuring reduction in virus-yield.
Experiment [9] has as its target T1, Genome polyprotein. Description: Inhibition of RNA-dependent RNA polymerase in Zika virus MR766 infected in African green monkey Vero cells assessed as antiviral activity by Alexa Fluor 488/DAPI staining based assay.
Experiment [10] concerns the target T1, Genome polyprotein. Description: Inhibition of RNA-dependent RNA polymerase in Zika virus MR766 infected in African green monkey Vero cells assessed as antiviral activity by measuring reduction in virus-induced cytopathic effect after 5 days by MTS assay. On the technique in general: Damage to the host cells serves as the signal in cytopathic effect assays.

For experiment [11], the target named is T1, Genome polyprotein. The experiment in a line: Inhibition of RNA-dependent RNA polymerase in Zika virus MR766 infected in African green monkey Vero cells assessed as antiviral activity by methylene blue staining based by Plaque reduction assay.
Experiment [12] concerns the target T1, Genome polyprotein. Description: Inhibition of RNA-dependent RNA polymerase in Zika virus Malaysian P 6-740 infected in human Huh-7 cells assessed as antiviral activity by neutral dye based colorimetric method.
Experiment [13] addresses T1, Genome polyprotein. The experiment in a line: Inhibition of RNA-dependent RNA polymerase in Zika virus PRVABC-59 infected in African green monkey Vero cells assessed as antiviral activity by neutral dye based colorimetric method.
Experiment [14] concerns the target T1, Genome polyprotein. The experiment in a line: Inhibition of RNA-dependent RNA polymerase in Zika virus Ugandan MR-766 infected in African green monkey Vero cells assessed as antiviral activity by neutral dye based colorimetric method.
Experiment [15] has as its target T1, Genome polyprotein. Description: Inhibition of RNA-dependent RNA polymerase in Zika virus Malaysian P 6-740 infected in African green monkey Vero cells assessed as antiviral activity by neutral dye based colorimetric method.
For experiment [16], the target named is T1, Genome polyprotein. The experiment in a line: Inhibition of RNA-dependent RNA polymerase in Zika virus PRVABC-59 infected in human RD cells assessed as antiviral activity by neutral dye based colorimetric method.
The target in experiment [17] is T1, Genome polyprotein. The experiment in a line: Inhibition of RNA-dependent RNA polymerase in Zika virus PRVABC-59 infected in human HuH7 cells assessed as antiviral activity by neutral dye based colorimetric method.
Experiment [18] concerns the target T1, Genome polyprotein. Description: Inhibition of RNA-dependent RNA polymerase in Zika virus Ugandan MR-766 infected in human Huh-7 cells assessed as antiviral activity by neutral dye based colorimetric method.
Experiment [19] concerns the target T1, Genome polyprotein. The experiment in a line: Inhibition of RNA-dependent RNA polymerase in Zika virus Ugandan MR-766 infected in human RD cells assessed as antiviral activity by neutral dye based colorimetric method.
A short description of experiment [20]: Inhibition of RNA-dependent RNA polymerase in Zika virus infected in African green monkey Vero cells assessed as antiviral activity by DAPI-staining based assay.
Experiment [21] can be described thus: Inhibition of RNA-dependent RNA polymerase in Zika virus infected in human NPC assessed as antiviral activity by DAPI-staining based assay.
Experiment [22] concerns the target T2, Nonstructural protein 3 (Zika virus, UniProt A0A024AXB9). The experiment in a line: Inhibition of NS2B-NS3 protease in Zika virus Puerto Rico/PRVABC5 infected in African green monkey Vero cells assessed as antiviral activity measured 48 hrs post infection by RT-PCR method.
The target of experiment [23] is T2, Nonstructural protein 3. Description: Inhibition of NS2B-NS3 protease in Zika virus Puerto Rico/PRVABC5 infected in human Huh7 cells assessed as antiviral activity measured 48 hrs post infection by RT-PCR method.
For experiment [24], the target named is T2, Nonstructural protein 3. The experiment in a line: Inhibition of NS2B-NS3 protease in Zika virus Puerto Rico/PRVABC5 assessed as antiviral activity measured 48 hrs post infection by plaque reduction assay.
The target in experiment [25] is T1, Genome polyprotein. The experiment in a line: Inhibition of RNA-dependent RNA polymerase in Zika virus GZ01/2016 infected in African green monkey Vero cells assessed as antiviral activity by measuring viral RNA by RT-qPCR method.
Experiment [26] addresses T1, Genome polyprotein. Description: Inhibition of RNA-dependent RNA polymerase in Zika virus FSS13025/2010 infected in African green monkey Vero cells assessed as antiviral activity by measuring viral RNA by RT-qPCR method.
Experiment [27] addresses T1, Genome polyprotein. Description: Inhibition of RNA-dependent RNA polymerase in Zika virus FSS13025/2010 infected in African green monkey Vero cells assessed as antiviral activity measured 48 hrs post infection by plaque assay.
In experiment [28] the target is T1, Genome polyprotein. Description: Inhibition of RNA-dependent RNA polymerase in Zika virus GZ01/2016 infected in African green monkey Vero cells assessed as antiviral activity measured 48 hrs post infection by plaque assay.
A short description of experiment [29]: Inhibition of RNA-dependent RNA polymerase in Zika virus MR766 infected in African green monkey Vero cells assessed as antiviral activity after 72 hrs by DAPI staining based assay.

T1 sequence (A0A143MHK7 whole entry): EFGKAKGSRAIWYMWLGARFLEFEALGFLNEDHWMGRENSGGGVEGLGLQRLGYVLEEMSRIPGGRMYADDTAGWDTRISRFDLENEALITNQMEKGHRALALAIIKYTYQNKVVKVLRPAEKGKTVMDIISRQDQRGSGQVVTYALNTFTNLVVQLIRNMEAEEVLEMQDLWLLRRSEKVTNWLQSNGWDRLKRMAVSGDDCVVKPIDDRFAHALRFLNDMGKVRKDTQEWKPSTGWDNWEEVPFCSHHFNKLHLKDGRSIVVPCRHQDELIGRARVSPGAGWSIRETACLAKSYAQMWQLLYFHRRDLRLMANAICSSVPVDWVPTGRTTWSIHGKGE
T2 sequence (A0A024AXB9 whole entry): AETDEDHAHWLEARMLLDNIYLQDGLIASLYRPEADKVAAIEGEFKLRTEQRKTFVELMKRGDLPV

Turning to `C#C[C@@]1(O)[C@H](O)[C@@H](COP(=O)(N[C@@H](C)C(=O)OC(C)C)Oc2ccccc2)O[C@H]1n1ccc(=O)[nH]c1=O` (stereo partly specified), the EC50 in [1] worked out at 300 nM; in experiment [2] it was 800 nM.
For the compound `CCCCCOCc1c(Nc2ccc(S(N)(=O)=O)cc2)nc(N2CCOCC2)nc1C(=O)NCCOc1ccccc1`, the EC50 in experiment [3] turned out to be 2040 nM.
Consider `CC(C)OC(=O)[C@H](C)NP(=O)(OC[C@H]1O[C@@H](n2ccc(=O)[nH]c2=O)[C@H](O)[C@@H]1O)Oc1ccccc1` (stereo partly specified), for which the results for the EC50 in [1] and in experiment [2] were 1000 nM and 2000 nM, respectively.
With `O=C1c2cccc3cccc(c23)C(=O)N1CCc1ccc(S(=O)(=O)N2CCN(c3ccccc3)CC2)cc1`, the EC50 in [4] was found to be 4800 nM.
For the compound `O=C(NC(=S)Nc1ccc(N2CCN(C(=O)c3cccs3)CC2)cc1)c1sc2ccccc2c1Cl`, in experiment [5], the EC50 amounted to 94 nM.
Turning to `CC[C@H]1CN2CCc3cc(OC)c(OC)cc3[C@@H]2C[C@@H]1C[C@H]1NCCc2cc(OC)c(OC)cc21` [6',7',10,11-tetramethoxyemetan], the EC50 in experiment [6] is 8.7 nM; in experiment [7], 53 nM.
Take `Nc1ncnc2c1ccn2[C@@H]1O[C@H](CO)[C@@H](O)[C@H]1O` ['2-(4-AMINO-PYRROLO[2,3-D]PYRIMIDIN-7-YL)-5-HYDROXYMETHYL-TETRAHYDRO-FURAN-3,4-DIOL]: the EC50 on Genome polyprotein [8], on Genome polyprotein [9], at Genome polyprotein [10] and on Genome polyprotein [11] was 1300 nM each time.
For the compound `Nc1ncnc2c([C@@H]3N[C@H](CO)[C@@H](O)[C@H]3O)c[nH]c12` [BCX-4430], the EC50 at Genome polyprotein [12], at Genome polyprotein [13], at Genome polyprotein [14], at Genome polyprotein [15], on Genome polyprotein [16] and at Genome polyprotein [17] was 14300 nM in each case. Besides, the EC50 at Genome polyprotein [18] and at Genome polyprotein [19] was 14300 nM throughout.
Consider `CC(C)OC(=O)[C@H](C)N[P@](=O)(OC[C@H]1O[C@@H](n2ccc(=O)[nH]c2=O)[C@](C)(F)[C@@H]1O)Oc1ccccc1` [CHEBI:85083], for which the figures for the EC50 in experiment [20] and in experiment [21] were 30900 nM and 120 nM, respectively.
For the compound `CO[C@@H]1[C@@H](OC(N)=O)[C@@H](O)[C@H](Oc2ccc3c(O)c(NC(=O)c4ccc(O)c(CC=C(C)C)c4)c(=O)oc3c2C)OC1(C)C` [Carbamic acid 5-hydroxy-6-{4-hydroxy-3-[4-hydroxy-3-(3-methyl-but-2-enyl)-benzoylamino]-8-methyl-2-oxo-2H-chromen-7-yloxy}-3-methoxy-2,2-dimethyl-tetrahydro-pyran-4-yl ester(Novobiocin)], the EC50 on Nonstructural protein 3 [22], at Nonstructural protein 3 [23] and on Nonstructural protein 3 [24] was 24400 nM in each case.
In the case of `C#C[C@@]1(O)[C@H](O)[C@@H](CO)O[C@H]1n1ccc2c(N)ncnc21` [NITD008], the EC50 on Genome polyprotein [25], at Genome polyprotein [26], on Genome polyprotein [27] and at Genome polyprotein [28] was 137 nM throughout.
Take `NC(=O)c1ncn([C@@H]2O[C@H](CO)[C@@H](O)[C@H]2O)n1` [Tribavirin]: the EC50 in experiment [29] came out at 20800 nM.

Usually EC50 stands for the concentration that produces a half-maximal response.
